Key:
[1] = system: Respiratory syncytial virus recombinant with luciferase (RSV-Luc5) in Normal Human Bronchial Epithelial (NHBE) cells; experiment: microbe, parasite or virus in culture; assay type: cell-based; conditions: 72 h, read-out: RSV NHBE EC50
[2] = CC50 MT4 cytotoxicity (Cell-Titer Glo); assay type: cell-based; conditions: human
Procedure: Cytotoxicity of the compounds was determined in uninfected cells using the cell viability reagent in a similar fashion as described before for other cell types (Cihlar et al., Antimicrob Agents Chemother. 2008, 52(2):655-65). HEp-2 (1.5×10^3 cells/well) and MT-4 (2×10^3 cells/well) cells were plated in 384-well plates and incubated with the appropriate medium containing 3-fold serially diluted compound ranging from 15 nM to 100,000 nM. Cells were cultured for 4-5 days at 37° C. Following the incubation, the cells were allowed to equilibrate to 25° C., and cell viability was determined by adding Cell-Titer Glo viability reagent. The mixture was incubated for 10 min, and the luminescence signal was quantified using an Envision plate reader. Untreated cell and cells treated at 2 μM puromycin (Sigma, St. Louis, MO) serve as 100% and 0% cell viability control, respectively. The percent of cell viability was calculated for each tested compound concentration relative to the 0% and 100% controls and the CCso value was determined by non-linear regression as a compound concentration reducing the cell viability by 50%.

[3] = system: SARS Coronavirus 2 recombinant with NanoLuc (SARS-CoV2-NLuc) in A549-hACE2 cells; experiment: organism not typed; assay type: cell-based; conditions: 48 h; read-out: SARS-CoV2 EC50
[4] = system: Respiratory syncytial virus recombinant with luciferase (RSV-Luc5) in HEp-2 cells; experiment: microbe, parasite or virus in culture; assay type: cell-based; conditions: human respiratory syncytial virus, HEp-2, 72 h, read-out: RSV Hep2 EC50
[5] = GI S9 stability - no PMSF; assay type: in vitro ADME; conditions: pH 7.4; human intestinal S9, PMSF-free; read-out: GIS9-HUMAN-NoPMSF T1/2
Procedure: Duplicate aliquots of test compound or positive control substrate (GS-7340) were added to S9 stock diluted with 100 mM phosphate buffered saline, pH 7.4, to obtain a protein concentration of 1.0 mg/mL. The S9 metabolic reactions were initiated by the addition of the substrates to the S9 reaction mixture to a final concentration of 2 μM. At 0, 10, 20, 30, 60 and 120 min, […] aliquots of the reaction mixture were transferred to plates containing […] of IS/Q solution. After quenching, the plates were centrifuged at 3000 g for 30 minutes, and 150 μL aliquots of each supernatant were diluted with 150 μL water. Aliquots ([…]) of the diluted supernatant were analyzed on a Thermo Q-Exactive mass spectrometer as described below. GI S9 Stability—No phenylmethylsulfonyl fluoride (PMSF): Similar to the procedure described above, test compounds were incubated at 2 μM with 1 mg/mL PMSF-free Intestinal S9 fractions. Samples are removed at 6 time points over the course of a 120 min experiment and the parent compound disappreance and reference compound A formation is determined by mass spectrometry.
Example K: Liquid Chromatography/Mass Spectroscopy Methods for S9 and Plasma Stability
Quantification of test compounds, Reference Compound A (S9 stability assay nucleoside metabolite), and controls was performed by analyte/internal standard peak area ratio (PAR) values measured on a Thermo Q-Exactive mass spectrometer coupled to a Dionex UltiMate 3000 HPLC with a Leap Technologies HTC PAL autosampler. The column used for analysis of test compounds and Reference Compound A was a Waters Acquity BEH C18 ([…] particle size, 2.1′50 mm). The column used for control (GS-7340) was a Thermo Hypersil GOLD ([…] particle size, 2.1′50 mm). Mobile phase A consisted of 0.1% (v/v) formic acid in water. Mobile phase B consisted of 0.1% (v/v) formic acid in acetonitrile. Elution of analytes was achieved by a series of linear gradients of acetonitrile in water containing 0.1°(v/v) formic acid. The mass spectrometer was calibrated on a weekly basis and mass tolerance of 5 ppm was used.

Plasma stability = assay type: in vitro ADME; parameters: unit not given here; conditions: 37° C., 2 μM substrate
Procedure: At 0.05, 0.5, 1, 2, 3 and 4 hr, […] aliquots of the reaction mixture were transferred to plates containing […] of IS/Q quenching solution. After quenching, the plates were centrifuged at 3000 g for 30 minutes, and 150 μL supernatant was diluted with 150 μL water. Aliquots ([…]) of the diluted supernatant were analyzed on a Thermo Q-Exactive mass spectrometer as described below.
Mobile phase A consisted of 0.1% (v/v) formic acid in water. Mobile phase B consisted of 0.1% (v/v) formic acid in acetonitrile. Elution of analytes was achieved by a series of linear gradients of acetonitrile in water containing 0.1°(v/v) formic acid. The mass spectrometer was calibrated on a weekly basis and mass tolerance of 5 ppm was used.

[6] = system: Caco-2 cells (clone C2BBe1); experiment: CACO-2 permeability; assay type: in vitro ADME; parameters: unit not given here; conditions: for DM Caco2 A to B: apical to basolateral, donor pH 6.5, receiver pH 7.4; for DM Caco2 B to A: basolateral to apical
Procedure: Pre-plated Caco-2 cells (clone C2BBel) were obtained from Sigma-Aldrich, Inc. (Atlanta, GA). Cell monolayers were grown to confluence on collagen-coated, microporous, polycarbonate membranes in 24-well transwell plates for 21 days. The permeability assay buffer in donor wells was Hanks' balanced salt solution (HBSS) containing 10 mM HEPES and 15 mM glucose at a pH of 6.5 containing 200 μM BNPP. The receiver wells used HBSS buffer containing 10 mM HEPES and 15 mM glucose at a pH of 7.4 and supplemented with 1°% BSA. After an initial equilibration with transport buffer, TEER values were read to test membrane integrity. The experiment was started by the addition of buffers containing test compounds, 200 μl and 1000 μl in the apical and basolateral chamber, respectively. At 0- and 2-hour post dose, 10 μL was sampled from donor compartment and was immediately diluted in 190 μL of 20% methanol. At 1 and 2 hours post dose, 100 μl of solution was taken from the receiver compartments and was immediately diluted in 100 μl of 20% methanol. Removed buffer was replaced with fresh buffer and a correction was applied to all calculations for the removed material. Each compound was tested in 2 separate replicate wells for each condition. All samples were then extracted with 400 μl 100% acetonitrile with internal standard to precipitate protein. Cells were dosed on the apical or basolateral side to determine forward (A to B) and reverse (B to A) permeability. To test for non-specific binding and compound instability, the total amount of drug was quantitated at the end of the experiment and compared to the material present in the original dosing solution as a percent recovery. […] Samples were analyzed by LC-MS/MS.

SMILES	EC50 [1]	CC50 [2]	EC50 [3]	EC50 [4]	half-life at 2 µM [5]	STA Human Plasma 37 (Plasma stability)	DM Caco2 A to B [6]	DM Caco2 B to A [6]
CC(C)(C)COC(=O)OC[C@H]1O[C@@](C#N)(c2ccc3c(=N)n(COP(=O)(O)OCc4ccccc4)cnn23)[C@H](O)[C@@H]1O [Compound 18, ((2R,3S,4R,5R)-5-(3-((((benzyloxy)(hydroxy)phosphoryl)oxy)methyl)-4-imino-3,4-dihydropyrrolo[2,1-f][1,2,4]triazin-7-yl)-5-cyano-3,4-dihydroxytetrahydrofuran-2-yl)methyl neopentyl carbonate]	12100 nM	> 50000 nM	12400 nM	2870 nM	–	–	–	–
N#C[C@@]1(c2ccc3c(N)ncnn23)O[C@H](COC(=O)OC2CNC2)[C@@H](O)[C@H]1O [Compound 20, ((2R,3S,4R,5R)-5-(4-aminopyrrolo[2,1-f][1,2,4]triazin-7-yl)-5-cyano-3,4-dihydroxytetrahydrofuran-2-yl)methyl azetidin-3-yl carbonate]	4350 nM	> 50000 nM	8980 nM	2020 nM	–	–	–	–
Cc1oc(=O)oc1COC(=O)OC[C@H]1O[C@@](C#N)(c2ccc3c(N)ncnn23)[C@H](O)[C@@H]1O [Compound 26, ((2R,3S,4R,5R)-5-(4-aminopyrrolo[2,1-f][1,2,4]triazin-7-yl)-5-cyano-3,4-dihydroxytetrahydrofuran-2-yl)methyl ((5-methyl-2-oxo-1,3-dioxol-4-yl)methyl) carbonate]	844 nM	> 50000 nM	2390 nM	942 nM	29.2 s	33.7	0.07	0.36
CCCCCOC(=O)OC[C@H]1O[C@@](C#N)(c2ccc3c(N)ncnn23)[C@H](O)[C@@H]1O [Compound 27, ((2R,3S,4R,5R)-5-(4-aminopyrrolo[2,1-f][1,2,4]triazin-7-yl)-5-cyano-3,4-dihydroxytetrahydrofuran-2-yl)methyl pentyl carbonate]	1010 nM	> 50000 nM	658 nM	145 nM	–	–	–	–
N#C[C@@]1(c2ccc3c(N)ncnn23)O[C@H](COC(=O)OC2CC3(CCC3)C2)[C@@H](O)[C@H]1O [Compound 29, ((2R,3S,4R,5R)-5-(4-aminopyrrolo[2,1-f][1,2,4]triazin-7-yl)-5-cyano-3,4-dihydroxytetrahydrofuran-2-yl)methyl spiro[3.3]heptan-2-yl carbonate]	1300 nM	> 50000 nM	835 nM	109 nM	37 s	139	1.91	12.29
CC1(C)CC(OC(=O)OC[C@H]2O[C@@](C#N)(c3ccc4c(N)ncnn34)[C@H](O)[C@@H]2O)C1 [Compound 31, ((2R,3S,4R,5R)-5-(4-aminopyrrolo[2,1-f][1,2,4]triazin-7-yl)-5-cyano-3,4-dihydroxytetrahydrofuran-2-yl)methyl (3,3-dimethylcyclobutyl) carbonate]	803 nM	> 50000 nM	1080 nM	322 nM	51.4 s	32.4	0.68	13
N#C[C@@]1(c2ccc3c(N)ncnn23)O[C@H](COC(=O)OC2CCCCC2)[C@@H](O)[C@H]1O [Compound 35, ((2R,3S,4R,5R)-5-(4-aminopyrrolo[2,1-f][1,2,4]triazin-7-yl)-5-cyano-3,4-dihydroxytetrahydrofuran-2-yl)methyl cyclohexyl carbonate]	1010 nM	> 50000 nM	1910 nM	651 nM	35.6 s	139.6	0.95	10.64
N#C[C@@]1(c2ccc3c(N)ncnn23)O[C@H](COC(=O)OC2CCOCC2)[C@@H](O)[C@H]1O [Compound 50, ((2R,3S,4R,5R)-5-(4-aminopyrrolo[2,1-f][1,2,4]triazin-7-yl)-5-cyano-3,4-dihydroxytetrahydrofuran-2-yl)methyl (tetrahydro-2H-pyran-4-yl) carbonate]	1370 nM	> 50000 nM	20400 nM	1920 nM	914 s	430.4	0.13	2.76
N#C[C@@]1(c2ccc3c(N)ncnn23)O[C@H](COC(=O)OCC2CCCC2)[C@@H](O)[C@H]1O [Compound 85, ((2R,3S,4R,5R)-5-(4-aminopyrrolo[2,1-f][1,2,4]triazin-7-yl)-5-cyano-3,4-dihydroxytetrahydrofuran-2-yl)methyl (cyclopentylmethyl) carbonate]	776 nM	> 50000 nM	417 nM	166 nM	37.3 s	38.6	–	–
N#C[C@@]1(c2ccc3c(N)ncnn23)O[C@H](COC(=O)OCC2CCCCC2)[C@@H](O)[C@H]1O [Compound 86, ((2R,3S,4R,5R)-5-(4-aminopyrrolo[2,1-f][1,2,4]triazin-7-yl)-5-cyano-3,4-dihydroxytetrahydrofuran-2-yl)methyl (cyclohexylmethyl) carbonate]	1220 nM	> 50000 nM	623 nM	371 nM	41 s	48.6	–	–
CC[C@@H](C)OC(=O)OC[C@H]1O[C@@](C#N)(c2ccc3c(N)ncnn23)[C@H](O)[C@@H]1O [Compound 89, ((2R,3S,4R,5R)-5-(4-aminopyrrolo[2,1-f][1,2,4]triazin-7-yl)-5-cyano-3,4-dihydroxytetrahydrofuran-2-yl)methyl ((R)-sec-butyl) carbonate]	978 nM	> 50000 nM	2690 nM	665 nM	35.4 s	188.5	–	–
